# Columns and labels:
# HMGB3 [1] = target: T1, HMGB3 (Arabidopsis thaliana, UniProt P93047); assay: photoaffinity crosslinking, immunoblot with anti-SA antibody; format: binding; details: 50 uM 4AzSA, PBS, on ice, 254 nm UV 30 mJ; covalent
# T1 construct: ORF in pET30 Xa/LIC, 6xHis-tagged, E. coli BL21, Ni-NTA and Superdex 200 purified; ABRC ORF clone
# T1 sequence (P93047 1-141): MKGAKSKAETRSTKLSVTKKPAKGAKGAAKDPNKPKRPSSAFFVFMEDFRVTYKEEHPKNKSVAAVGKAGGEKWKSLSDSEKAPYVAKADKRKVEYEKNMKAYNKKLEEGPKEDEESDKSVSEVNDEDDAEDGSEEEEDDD
# HMGB3 [2] = target: T1, HMGB3; assay: SPR competition on 3AESA chip; competition of 4AzSA photoaffinity crosslinking; format: binding; details: 1 uM HMGB3 in SPR; 50 uM 4AzSA in PBS for crosslinking; competitive
SMILES,"photoaffinity crosslinking, immunoblot with anti-SA antibody (HMGB3 [1])",SPR competition on 3AESA chip; competition of 4AzSA photoaffinity crosslinking (HMGB3 [2])
"[N-]=[N+]=Nc1ccc(C(=O)O)c(O)c1 [4AzSA, 4-azido SA]",HMGB3 was effectively crosslinked to 4AzSA by UV irradiation,–
"O=C(O)c1ccccc1O [SA, salicylic acid]",–,this binding was competed in the presence of increasing concentrations of SA

# From publication PMC4805298, “Activation of Plant Innate Immunity by Extracellular High Mobility Group Box 3 and Its Inhibition by Salicylic Acid” (PLoS Pathogens, 2016)
